{
  "source": "patent US20230173005A1",
  "about": "(ASIA UNIVERSITY, priority 2021, published 2023)",
  "key": {"[1]": {"test_system": "NO free radicals", "assay": "Nitrite analysis of mouse serum", "type": "in vivo", "details": "cisplatin 20 mg/Kg i.p.", "procedure": "(§1) Male ICR mice aged 7-8 weeks (each weighing about 30-32 grams) were divided into 6 groups, 10 mice per group, and the six groups correspond to a control group, an induction group, a positive control group and low-medium-high dose brown Flammulina velutipes water extract groups. The entire process was limited to 10 days. […] Both of the induction and the sacrifice were performed in a fasting state.\n(§2) The administration was performed for 10 consecutive days while feeding at around 10 a.m. Normal food was provided during the above period. […] On the day before induction, all […] groups were treated on an empty stomach.\nMouse serum was taken by 100 μL each and added to a new 96-well microassay plate. Then, Griess Reagent was added by the same amount of […]. The Griess reagent was obtained by mixing an aqueous solution of N-(1-naphthyl)ethylenediamine with a 1% sulfanilamide solution dissolved in 5% phosphoric acid in the volumetric ratio of 1:1. Thereafter, the absorbance was measured at a wavelength of 540 nm using a microplate spectrometer (Molecular Devices), so that the ability of removing NO free radicals was measured in each group."}, "[2]": {"test_system": "COX-2", "assay": "Western blotting of kidney, COX-2", "type": "in vivo, mouse", "procedure": "as §1, §2\n(§3) The kidneys were homogenized with a PBS solution and diluted 10 folds to form a homogeneous solution, and the homogeneous solution was centrifuged at 12,000 rpm at 4° C. for 20 minutes. The supernatant was taken to quantify each protein concentration, and treated to have a uniform concentration. A protein was added to a protein dye to form a sample, placed in a drying bath at 100° C., and heated for 5 minutes. Then, the sample was injected into 10%, 15% or 8% of colloid prepared with 40% of acrylamide/bisN,N-methylenbisacrylamide, in which the ratio of acrylamide to bisN,N-methylenbisacrylamide was 29:1. […]\n(§4) After completion of the transfer, blocking was performed for 1 hour using milk. […] In addition, image data were acquired and analyzed by the Image J system."}, "[3]": {"test_system": "PI3K", "assay": "Western blotting of kidney, PI3K", "type": "in vivo, mouse", "details": "cisplatin 20 mg/Kg i.p. vs control group", "procedure": "as §1, §2, §3, §4"}, "[4]": {"test_system": "IL-1β", "assay": "Cytokine analysis (ELISA), IL-1β", "type": "in vivo, mouse", "details": "serum ELISA; cisplatin 20 mg/Kg i.p. vs control group", "procedure": "as §1, §2\n(§5) After sacrificing the mice to collect corresponding blood, and serum was separated and then diluted 10-fold or 5-fold. TNF-α, IL-6 and IL-1β were analyzed according to the multiple antibody sandwich principle by using BioLegend Company's ELISA kits.\n(§6) In a 96-well microassay plate, 100 μL of capture antibody was added to each well, and placed at room temperature overnight. […] Finally, 2 equivalents of 100 μL of sulfuric acid as a stop solution was added, and the change in absorbance at a wavelength of 450 nm was measured with a microplate spectrometer. The concentration of cytokines in serum was additionally calculated."}, "[5]": {"test_system": "TLR4", "assay": "Western blotting of kidney, TLR4", "type": "in vivo, mouse", "procedure": "as §1, §2, §3, §4"}, "[6]": {"test_system": "Nrf2", "assay": "Western blotting of kidney, Nrf2", "type": "in vivo, mouse", "details": "cisplatin 20 mg/Kg i.p. vs control group", "procedure": "as §1, §2, §3, §4"}, "[7]": {"test_system": "TNF-α", "assay": "Cytokine analysis (ELISA), TNF-α", "type": "in vivo, mouse", "details": "serum ELISA; cisplatin 20 mg/Kg i.p. vs control group", "procedure": "as §1, §2, §5, §6"}, "[8]": {"test_system": "p-NFκB", "assay": "Western blotting of kidney, p-NFκB", "type": "in vivo, mouse", "procedure": "as §1, §2, §3, §4"}, "[9]": {"test_system": "iNOS", "assay": "Western blotting of kidney, iNOS", "type": "in vivo, mouse", "procedure": "as §1, §2, §3, §4"}, "[10]": {"test_system": "BAX", "assay": "Western blotting of kidney, BAX", "type": "in vivo, mouse", "procedure": "as §1, §2, §3, §4"}, "[11]": {"test_system": "p62", "assay": "Western blotting of kidney, p62", "type": "in vivo, mouse", "details": "cisplatin 20 mg/Kg i.p. vs control group", "procedure": "as §1, §2, §3, §4"}, "[12]": {"test_system": "superoxide dismutase (SOD)", "assay": "Western blotting of kidney, SOD", "type": "in vivo, mouse", "procedure": "as §1, §2, §3, §4"}, "[13]": {"test_system": "Beclin-1", "assay": "Western blotting of kidney, Beclin-1", "type": "in vivo, mouse", "details": "cisplatin 20 mg/Kg i.p. vs control group", "procedure": "as §1, §2, §3, §4"}, "[14]": {"test_system": "HO-1", "assay": "Western blotting of kidney, HO-1", "type": "in vivo, mouse", "details": "cisplatin 20 mg/Kg i.p. vs control group", "procedure": "as §1, §2, §3, §4"}, "[15]": {"test_system": "Bcl-2", "assay": "Western blotting of kidney, Bcl-2", "type": "in vivo, mouse", "procedure": "as §1, §2, §3, §4"}, "[16]": {"test_system": "glutathione peroxidase (GPX1)", "assay": "Western blotting of kidney, GPX1", "type": "in vivo, mouse", "procedure": "as §1, §2, §3, §4"}, "[17]": {"test_system": "LC3B", "assay": "Western blotting of kidney, LC3B", "type": "in vivo, mouse", "details": "cisplatin 20 mg/Kg i.p. vs control group", "procedure": "as §1, §2, §3, §4"}, "[18]": {"test_system": "AKT", "assay": "Western blotting of kidney, AKT", "type": "in vivo, mouse", "details": "cisplatin 20 mg/Kg i.p. vs control group", "procedure": "as §1, §2, §3, §4"}, "[19]": {"test_system": "IL-6", "assay": "Cytokine analysis (ELISA), IL-6", "type": "in vivo, mouse", "details": "serum ELISA; cisplatin 20 mg/Kg i.p. vs control group", "procedure": "as §1, §2, §5, §6"}, "[20]": {"test_system": "mouse model of the acute renal failure induced by cisplatin", "assay": "Measurement on kidney weight/body weight ratio", "type": "in vivo", "details": "Amifostine 200 mg/kg i.p. 30 min after cisplatin 20 mg/Kg day 7", "procedure": "as §1, §2\nKidneys were removed from the mouse body, and adrenal glands and surrounding fat were removed, washed with saline and then weighed immediately. The weights of the both kidneys were obtained and compared with the weight of the mouse measured on the last day, and the difference between the kidney/weight ratios of the mice was calculated."}, "[21]": {"test_system": "mouse model of the acute renal failure induced by cisplatin", "assay": "Weight measurement in cisplatin-induced mice", "type": "in vivo", "details": "Amifostine 200 mg/kg i.p. 30 min after cisplatin 20 mg/Kg day 7", "procedure": "as §1, §2"}, "[22]": {"test_system": "catalase", "type": "in vivo, mouse", "details": "kidney; Amifostine 200 mg/Kg i.p. or WFV 1000 mg/kg oral in advance", "procedure": "as §1, §2, §3, §4"}, "[23]": {"details": "cisplatin 20 mg/Kg i.p. vs control group"}, "[24]": {"details": "Amifostine 200 mg/Kg i.p. or high-dose WFV (1000 mg/Kg oral) vs cisplatin induction group"}, "[25]": {"details": "Amifostine 200 mg/Kg i.p. or high-dose WFV (1000 mg/Kg oral) vs induction group"}, "[26]": {"details": "Amifostine 200 mg/Kg i.p. or WFV 1000 mg/kg oral in advance"}},
  "data": [
    {"smiles": "N.N.[Cl][Pt][Cl]", "note": "[Cis, cisplatin]", "values": [
      {"measurement": "expression level of NO free radicals (nitrite in serum)", "setting": "[1]", "result": "increased remarkably"},
      {"measurement": "expression level of COX-2", "setting": "[2]; [23]", "result": "significant differences compared with the control group"},
      {"measurement": "expression level of PI3K", "setting": "[3]", "result": "significantly increased"},
      {"measurement": "concentration of IL-1β", "setting": "[4]", "result": "increased"},
      {"measurement": "expression level of TLR4", "setting": "[5]; [23]", "result": "upward trend"},
      {"measurement": "expression level of Nrf2", "setting": "[6]", "result": "significantly increased"},
      {"measurement": "concentration of TNF-α", "setting": "[7]", "result": "increased"},
      {"measurement": "expression level of p-NFκB", "setting": "[8]; [23]", "result": "upward trend"},
      {"measurement": "expression level of iNOS", "setting": "[9]; [23]", "result": "significant differences compared with the control group"},
      {"measurement": "expression level of apoptogenic protein BAX", "setting": "[10]; [23]", "result": "increased"},
      {"measurement": "level of p62", "setting": "[11]", "result": "significantly increased"},
      {"measurement": "expression level of SOD", "setting": "[12]; [23]", "result": "decreased"},
      {"measurement": "level of Beclin-1", "setting": "[13]", "result": "significantly increased"},
      {"measurement": "expression level of HO-1", "setting": "[14]", "result": "significantly increased"},
      {"measurement": "expression level of Bcl-2", "setting": "[15]; [23]", "result": "decreased"},
      {"measurement": "expression level of GPX1", "setting": "[16]; [23]", "result": "decreased"},
      {"measurement": "level of LC3B", "setting": "[17]", "result": "significantly increased"},
      {"measurement": "expression level of AKT", "setting": "[18]", "result": "significantly increased"},
      {"measurement": "concentration of IL-6", "setting": "[19]", "result": "increased"}
    ]},
    {"smiles": "NCCCNCCSP(=O)(O)O", "note": "[Ami, Amifostine]", "values": [
      {"measurement": "expression level of COX-2", "setting": "[2]; [24]", "result": "decreased"},
      {"measurement": "Kidney weight", "setting": "[20]", "result": "0.55 ± 0.025", "unit": "g"},
      {"measurement": "expression level of TLR4", "setting": "[5]; [24]", "result": "decreased"},
      {"measurement": "expression level of p-NFκB", "setting": "[8]; [24]", "result": "decreased"},
      {"measurement": "expression level of iNOS", "setting": "[9]; [24]", "result": "decreased"},
      {"measurement": "expression level of apoptogenic protein BAX", "setting": "[10]; [25]", "result": "significantly decreased"},
      {"measurement": "expression level of SOD", "setting": "[12]; [26]", "result": "not decreased"},
      {"measurement": "Body weight After", "setting": "[21]", "result": "36.6 ± 0.18", "unit": "g"},
      {"measurement": "expression level of Bcl-2", "setting": "[15]; [25]", "result": "increased"},
      {"measurement": "expression level of GPX1", "setting": "[16]; [26]", "result": "not decreased"},
      {"measurement": "expression level of catalase", "setting": "[22]", "result": "not decreased"}
    ]}
  ]
}
